According to ChEMBL document CHEMBL1156230, “Identification of phenylsulfone-substituted quinoxaline (WYE-672) as a tissue selective liver X-receptor (LXR) agonist” (J Med Chem, 2010):
Calls of active or inactive are those of the source. The calls are words filed in the database; no cut-off is given here.

Experiments:
[1] = species on record: Mus musculus; assay: Antiatherosclerotic activity against high fat/high cholesterol fed LDLR-deficient mouse assessed as reduction in total plasma cholesterol; assay type: functional, organism-based
[2] = tested on: Mus musculus; assay: Antiatherosclerotic activity against high fat/high cholesterol fed LDLR-deficient mouse duodenum assessed as induction of ABCA1 expression at 3 mg/kg administered with diet for 8 weeks; assay type: functional, organism-based; design: dose 3 mg/kg
[3] = tested on: Mus musculus; assay: Antiatherosclerotic activity against high fat/high cholesterol fed LDLR-deficient mouse duodenum assessed as induction of ABCA1 expression at 10 mg/kg administered with diet for 8 weeks; assay type: functional, organism-based; design: dose 10 mg/kg
[4] = tested on: Mus musculus; assay: Antiatherosclerotic activity against high fat/high cholesterol fed LDLR-deficient mouse duodenum assessed as induction of ABCG5 expression at 3 mg/kg administered with diet for 8 weeks; assay type: functional, organism-based; design: dose 3 mg/kg
[5] = tested on: Mus musculus; assay: Antiatherosclerotic activity against high fat/high cholesterol fed LDLR-deficient mouse duodenum assessed as induction of ABCG8 expression at 0.6 mg/kg administered with diet for 8 weeks; assay type: functional, organism-based; design: dose 0.6 mg/kg
[6] = tested on: Mus musculus; assay: Antiatherosclerotic activity against high fat/high cholesterol fed LDLR-deficient mouse duodenum assessed as induction of ABCG8 expression at 3 mg/kg administered with diet for 8 weeks; assay type: functional, organism-based; design: dose 3 mg/kg
[7] = tested on: Mus musculus; assay: Antiatherosclerotic activity against high fat/high cholesterol fed LDLR-deficient mouse duodenum assessed as induction of ABCG8 expression at 10 mg/kg administered with diet for 8 weeks; assay type: functional, organism-based; design: dose 10 mg/kg
[8] = tested on: Mus musculus; assay: Antiatherosclerotic activity against high fat/high cholesterol fed LDLR-deficient mouse duodenum assessed as induction of SREBP-1c expression at 0.6 mg/kg administered with diet for 8 weeks; assay type: functional, organism-based; design: dose 0.6 mg/kg
[9] = tested on: Mus musculus; assay: Antiatherosclerotic activity against high fat/high cholesterol fed LDLR-deficient mouse duodenum assessed as induction of SREBP-1c expression at 10 mg/kg administered with diet for 8 weeks; assay type: functional, organism-based; design: dose 10 mg/kg
[10] = tested on: Mus musculus; assay: Antiatherosclerotic activity against high fat/high cholesterol fed LDLR-deficient mouse macrophages assessed as induction of ABCA1 expression at 0.6 mg/kg administered with diet for 8 weeks; assay type: functional, organism-based; design: dose 0.6 mg/kg
[11] = tested on: Mus musculus; assay: Antiatherosclerotic activity against high fat/high cholesterol fed LDLR-deficient mouse macrophages assessed as induction of ABCA1 expression at 3 mg/kg administered with diet for 8 weeks; assay type: functional, organism-based; design: dose 3 mg/kg
[12] = tested on: Mus musculus; assay: Antiatherosclerotic activity against high fat/high cholesterol fed LDLR-deficient mouse macrophages assessed as induction of ABCG1 expression at 10 mg/kg administered with diet for 8 weeks; assay type: functional, organism-based; design: dose 10 mg/kg
[13] = tested on: Mus musculus; assay: Antiatherosclerotic activity against high fat/high cholesterol fed LDLR-deficient mouse macrophages assessed as induction of ABCG1 expression at 0.6 mg/kg administered with diet for 8 weeks; assay type: functional, organism-based; design: dose 0.6 mg/kg
[14] = tested on: Mus musculus; assay: Antiatherosclerotic activity against high fat/high cholesterol fed LDLR-deficient mouse assessed as abcg1 gene regulation at 0.6 mg/kg administered with diet for 7 days by Experion chip analysis; assay type: functional, organism-based; design: dose 0.6 mg/kg
[15] = tested on: Mus musculus; assay: Antiatherosclerotic activity against high fat/high cholesterol fed LDLR-deficient mouse assessed as abcg8 gene regulation at 0.6 mg/kg administered with diet for 7 days by Experion chip analysis; assay type: functional, organism-based; design: dose 0.6 mg/kg
[16] = tested on: Mus musculus; assay: Antiatherosclerotic activity against high fat/high cholesterol fed LDLR-deficient mouse assessed as apoe gene regulation at 0.6 mg/kg administered with diet for 7 days by Experion chip analysis; assay type: functional, organism-based; design: dose 0.6 mg/kg
[17] = tested on: Mus musculus; assay: Antiatherosclerotic activity against high fat/high cholesterol fed LDLR-deficient mouse assessed as cyp7a1 gene regulation at 0.6 mg/kg administered with diet for 7 days by Experion chip analysis; assay type: functional, organism-based; design: dose 0.6 mg/kg
[18] = tested on: Mus musculus; assay: Antiatherosclerotic activity against high fat/high cholesterol fed LDLR-deficient mouse assessed as Irp1 gene regulation at 0.6 mg/kg administered with diet for 7 days by Experion chip analysis; assay type: functional, organism-based; design: dose 0.6 mg/kg
[19] = tested on: Mus musculus; assay: Antiatherosclerotic activity against high fat/high cholesterol fed LDLR-deficient mouse assessed as pltp gene regulation at 0.6 mg/kg administered with diet for 7 days by Experion chip analysis; assay type: functional, organism-based; design: dose 0.6 mg/kg
[20] = tested on: Mus musculus; assay: Antiatherosclerotic activity against high fat/high cholesterol fed LDLR-deficient mouse assessed as scab1 gene regulation at 0.6 mg/kg administered with diet for 7 days by Experion chip analysis; assay type: functional, organism-based; design: dose 0.6 mg/kg
[21] = tested on: Mus musculus; assay: Antiatherosclerotic activity against high fat/high cholesterol fed LDLR-deficient mouse assessed as lipg gene regulation at 10 mg/kg administered with diet for 7 days by Experion chip analysis; assay type: functional, organism-based; design: dose 10 mg/kg
[22] = tested on: Mus musculus; assay: Antiatherosclerotic activity against high fat/high cholesterol fed LDLR-deficient mouse assessed as Irp1 gene regulation at 10 mg/kg administered with diet for 7 days by Experion chip analysis; assay type: functional, organism-based; design: dose 10 mg/kg
[23] = tested on: Mus musculus; assay: Antiatherosclerotic activity against high fat/high cholesterol fed LDLR-deficient mouse assessed as scab1 gene regulation at 10 mg/kg administered with diet for 7 days by Experion chip analysis; assay type: functional, organism-based; design: dose 10 mg/kg
[24] = tested on: Mus musculus; assay: Antiatherosclerotic activity against high fat/high cholesterol fed LDLR-deficient mouse assessed as scd1 gene regulation at 10 mg/kg administered with diet for 7 days by Experion chip analysis; assay type: functional, organism-based; design: dose 10 mg/kg
[25] = tested on: Mus musculus; assay: Antiatherosclerotic activity against high fat/high cholesterol fed LDLR-deficient mouse assessed as srebf1 gene regulation at 10 mg/kg administered with diet for 7 days by Experion chip analysis; assay type: functional, organism-based; design: dose 10 mg/kg
[26] = tested on: Mus musculus; assay: Antiatherosclerotic activity against high fat/high cholesterol fed LDLR-deficient mouse assessed as srebf1 gene regulation at 0.6 mg/kg administered with diet for 7 days by Experion chip analysis; assay type: functional, organism-based; design: dose 0.6 mg/kg
[27] = tested on: Mus musculus; assay: Antiatherosclerotic activity against high fat/high cholesterol fed LDLR-deficient mouse assessed as apoe gene regulation at 3 mg/kg administered with diet for 7 days by Experion chip analysis; assay type: functional, organism-based; design: dose 3 mg/kg
[28] = tested on: Mus musculus; assay: Antiatherosclerotic activity against high fat/high cholesterol fed LDLR-deficient mouse assessed as Fasn gene regulation at 3 mg/kg administered with diet for 7 days by Experion chip analysis; assay type: functional, organism-based; design: dose 3 mg/kg
[29] = tested on: Mus musculus; assay: Antiatherosclerotic activity against high fat/high cholesterol fed LDLR-deficient mouse assessed as ldlr gene regulation at 3 mg/kg administered with diet for 7 days by Experion chip analysis; assay type: functional, organism-based; design: dose 3 mg/kg
[30] = tested on: Mus musculus; assay: Antiatherosclerotic activity against high fat/high cholesterol fed LDLR-deficient mouse assessed as lipg gene regulation at 3 mg/kg administered with diet for 7 days by Experion chip analysis; assay type: functional, organism-based; design: dose 3 mg/kg
[31] = tested on: Mus musculus; assay: Antiatherosclerotic activity against high fat/high cholesterol fed LDLR-deficient mouse assessed as Irp1 gene regulation at 3 mg/kg administered with diet for 7 days by Experion chip analysis; assay type: functional, organism-based; design: dose 3 mg/kg
[32] = tested on: Mus musculus; assay: Antiatherosclerotic activity against high fat/high cholesterol fed LDLR-deficient mouse assessed as scab1 gene regulation at 3 mg/kg administered with diet for 7 days by Experion chip analysis; assay type: functional, organism-based; design: dose 3 mg/kg
[33] = tested on: Mus musculus; assay: Antiatherosclerotic activity against high fat/high cholesterol fed LDLR-deficient mouse assessed as abca1 gene regulation at 10 mg/kg administered with diet for 7 days by Experion chip analysis; assay type: functional, organism-based; design: dose 10 mg/kg
[34] = tested on: Mus musculus; assay: Antiatherosclerotic activity against high fat/high cholesterol fed LDLR-deficient mouse assessed as abcg5 gene regulation at 10 mg/kg administered with diet for 7 days by Experion chip analysis; assay type: functional, organism-based; design: dose 10 mg/kg
[35] = tested on: Mus musculus; assay: Antiatherosclerotic activity against high fat/high cholesterol fed LDLR-deficient mouse assessed as cyp7a1 gene regulation at 10 mg/kg administered with diet for 7 days by Experion chip analysis; assay type: functional, organism-based; design: dose 10 mg/kg
[36] = tested on: Mus musculus; assay: Antiatherosclerotic activity against high fat/high cholesterol fed LDLR-deficient mouse assessed as Fasn gene regulation at 10 mg/kg administered with diet for 7 days by Experion chip analysis; assay type: functional, organism-based; design: dose 10 mg/kg
[37] = tested on: Mus musculus; assay: Antiatherosclerotic activity against high fat/high cholesterol fed LDLR-deficient mouse assessed as abcg5 gene regulation at 3 mg/kg administered with diet for 8 weeks by Experion chip analysis
[38] = tested on: Mus musculus; assay: Antiatherosclerotic activity against high fat/high cholesterol fed LDLR-deficient mouse assessed as abcg8 gene regulation at 3 mg/kg administered with diet for 8 weeks by Experion chip analysis

Row | SMILES | Activity [1] | Activity [2] | Activity [3] | Activity [4] | Activity [5] | Activity [6] | Activity [7] | Activity [8] | Activity [9] | Activity [10] | Activity [11] | Activity [12] | Activity [13] | Activity [14] | Activity [15] | Activity [16] | Activity [17] | Activity [18] | Activity [19] | Activity [20] | also measured
1 | Cc1nc2c(C(F)(F)F)cccc2nc1-c1ccc(-c2cccc(S(C)(=O)=O)c2)cc1 | inactive | Active | Active | Active | Active | Active | Active | inactive | Active | Active | Active | Active | Active | Active | Active | Active | Active | Active | Active | Active | Activity [21]: Active; Activity [22]: Active; Activity [23]: Active; Activity [24]: Active; Activity [25]: Active; Activity [26]: Active; Activity [27]: Active; Activity [28]: Active; Activity [29]: Active; Activity [30]: Active; Activity [31]: Active; Activity [32]: Active; Activity [33]: Active; Activity [34]: Active; Activity [35]: Active; Activity [36]: Active; Activity [37]: Active; Activity [38]: Active
2 | O=C(O)Cc1cccc(OCCCN(Cc2cccc(C(F)(F)F)c2Cl)CC(c2ccccc2)c2ccccc2)c1 | inactive | Active | Active | Active | Active | Active | Active | Active | Active | Active | Active | Active | Active | Active | Active | Active | Active | Active | Active | Active | Activity [21]: Active; Activity [22]: Active; Activity [23]: Active; Activity [24]: Active; Activity [25]: Active; Activity [26]: Active; Activity [27]: Active; Activity [28]: Active; Activity [29]: Active; Activity [30]: Active; Activity [31]: Active; Activity [32]: Active; Activity [33]: Active; Activity [34]: Active; Activity [35]: Active; Activity [36]: Active; Activity [37]: Active; Activity [38]: Active
